Activity calls are given as the source filed them. The rule behind the calls is not given here.
Legend:
[1] = species on record: Homo sapiens; test: Inhibition of human SEAP assessed as decrease in substrate hydrolysis at 10 uM
[2] = molecular target: T1, Nucleotide-binding oligomerization domain-containing protein 1 (Homo sapiens) (UniProt Q9Y239); test: Inhibition of NOD1 in human PBMC-derived macrophages assessed as reduction in C12-iE-DAP-stimulated RIP2 phosphorylation at 1 to 10 uM preincubated for 1 hr followed by C12-iE-DAP stimulation for 45 mins by Western blot analysis
T1 sequence (whole entry): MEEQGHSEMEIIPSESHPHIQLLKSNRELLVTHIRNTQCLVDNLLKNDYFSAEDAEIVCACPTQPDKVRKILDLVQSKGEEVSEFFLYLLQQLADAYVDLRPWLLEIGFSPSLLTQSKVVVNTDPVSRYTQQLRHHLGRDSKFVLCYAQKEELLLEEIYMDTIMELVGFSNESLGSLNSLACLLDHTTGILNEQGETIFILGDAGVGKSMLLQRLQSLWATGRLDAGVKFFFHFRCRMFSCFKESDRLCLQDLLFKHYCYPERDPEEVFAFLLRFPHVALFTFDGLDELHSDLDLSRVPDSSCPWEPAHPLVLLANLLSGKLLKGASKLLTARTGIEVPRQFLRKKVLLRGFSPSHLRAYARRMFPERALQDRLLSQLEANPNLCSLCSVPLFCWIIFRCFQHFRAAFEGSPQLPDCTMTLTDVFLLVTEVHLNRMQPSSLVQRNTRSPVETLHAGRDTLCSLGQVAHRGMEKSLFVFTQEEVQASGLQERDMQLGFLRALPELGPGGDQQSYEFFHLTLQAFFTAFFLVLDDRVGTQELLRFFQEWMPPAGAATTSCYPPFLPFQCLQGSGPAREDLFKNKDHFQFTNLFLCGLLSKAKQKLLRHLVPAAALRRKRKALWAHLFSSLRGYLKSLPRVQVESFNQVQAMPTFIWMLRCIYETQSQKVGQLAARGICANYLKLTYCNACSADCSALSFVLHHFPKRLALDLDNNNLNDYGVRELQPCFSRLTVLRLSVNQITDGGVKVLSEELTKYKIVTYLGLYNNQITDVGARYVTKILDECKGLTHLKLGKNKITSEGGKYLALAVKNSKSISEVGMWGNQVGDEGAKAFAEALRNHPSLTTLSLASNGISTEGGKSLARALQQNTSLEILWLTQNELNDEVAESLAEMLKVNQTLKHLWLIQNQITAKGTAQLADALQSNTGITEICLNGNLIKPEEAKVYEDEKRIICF

## CCCNC(=O)CC[C@H]1NC(=O)c2cc(Oc3cccc(N(C)C)c3)c(NC(=O)COCc3ccccc3)cc2NC1=O
[1]
  inhibition: inactive
[2]
  inhibition: Active

Source: ChEMBL document CHEMBL4014339, “Discovery of 1,4-Benzodiazepine-2,5-dione (BZD) Derivatives as Dual Nucleotide Binding Oligomerization Domain Containing 1/2 (NOD1/NOD2) Antagonists Sensitizing Paclitaxel (PTX) To Suppress Lewis Lung Carcinoma (LLC) Growth in Vivo” (J Med Chem, 2017)
